From patent US11523610B2, “Regulating plant growth using a diapocarotenoid” (King Abdullah University of Science and Technology, priority 2018, dated 2022)
Entries after “also recorded” stand apart in the source; their conditions may differ.

Key:
[1] = test system: Arabidopsis root growth (Col-0 seedlings); test: Primary root length of Arabidopsis seedlings on treated half MS agar plates; format: in vivo
Experimental: β-cyclocitral, β-ionone and D′orenone (β-Apo-13-caroteneone) (FIG. 1A) were purchased from Buchem (Netherlands). Diapo1, Diapo2, Diapo3, Diapo4, Diapo5, and Diapo6 (FIG. 1B) were synthesized by Buchem (Netherlands). Diapo3 was also synthesized together with D6-anchorene and anchorene derivatives according to the protocol of SCHEME 2. Apocarotenoids and diapocarotenoids were dissolved in acetone to make stock solutions (10 mM). For the screening experiments, each chemical was diluted in half strength Murashige and Skoog (MS) media (with 0.5% sucrose+1% agar, 0.5 g/L MES, pH 5.7) to reach indicated concentrations of 25 μM and 5 μM. A stock solution of 10 mM GR24 (Chiralix, Netherlands) was also made by diluting GR24 in acetone. Stock solutions of D15 (100 mM), Norflurazone (5 mM), and CPTA (50 mM) were made in dimethyl sulfoxide (DMSO). For experiments, these compounds were diluted in concentrations of 125 μM D15, 500 nM Norflurazone, or 100 μM CPTA, respectively. 1-Naphthaleneacetic acid (NAA) and N-1-Naphthylphthalamic Acid (NPA) were purchased from Sigma-Aldrich (Germany) and dissolved in water to make 1 mM stock solutions. For NAA and NPA treatments, media containing 0.1 μM NAA and 1 μM NPA were used. Unless otherwise noted, all commercially available compounds were used as provided without further purification.
Sterilized Col-0 and mutants seeds were kept at 4° C. in darkness for 3 days to stimulate seed germination, and then sown on half strength MSO plates (with 0.5% sucrose +1% agar, 0.5g/L MES, pH 5.7) supplemented with the indicated chemicals as described below or in the Figures. Plates were vertically grown in PERCIVAL® growth chambers under long day (16 h light/8 h dark, 22° C., 60% relative humidity, light density: 4000 LUX) LED white light [HYPERIKON® 16 W LED Light Bulb A21, 16 W (100 W Equivalent), CRI92, 1620 Lumens, 4000K (Daylight Glow)] conditions. Light fluorescence rates were measured using a digital LUX meter ([…]® 5025).
ANRs were counted in seedlings vertically grown on half strength MS (with 0.5% sucrose +1% agar, 0.5 g/L MES, pH 5.7) media 8 days post-stratification (dps) using a dissection microscope. To investigate ANR formation after root apical meristems (RAM) excision (ANR-RE), RAM of seedlings were excised using sterile scalpels at 5 dps and then grown for another 3 days prior to counting the number of emerged ANRs. RAM of seedlings were excised at 8 dps and then grown for another 3 days prior to counting the number of emerged LRs. For determining the effect of anchorene on lateral roots, the number of emerged lateral roots were counted using a dissection microscope at 8 dps. For primary root length measurements, seedlings were measured using the publicly available ImageJ software (downloaded from rsbweb.nih.gov/ij/) after taking digital photographs. For adventitious root assay, the number of emerged adventitious roots per plant were counted after 5 days of treatment on plates with or without anchorene.
Six previously identified or predicted diapocarotenoids with chain lengths ranging from C9 to C15 (Diapo1-6) (FIG. 1B) and 3 apocarotenoids (FIG. 1C) were selected to identify new carotenoid-derived signals involved in root development). These compounds were selected because they are available and stable at ambient conditions. Diapo1 (C9) is the expected product formed upon cleavage of all-trans-β-apo-10′ carotenal. Diapo2 (C10) results from cleaving the C7, C8 and C15, C15′ double bonds in different carotenoids and is produced by cyanobacterial retinal-forming enzymes from Cm-apocarotenoids. Diapo3 (C10) is a structural isomer of Diapo2 and a predicted cleavage product that can be formed by cutting the C11, C12 and C11′, C12′ bonds in almost all plant carotenoids (FIGS. 1A, 1B and 17). Diapo4 (C12) results from cleaving the C7, C8 and C13′, C14′ bonds in many carotenoids, and is formed by the CCD1 from apo-10′-lycopenal.

[2] = test system: PIN3; test: PIN3-GFP fluorescence in ANR primordia (pPIN3::PIN3-GFP marker line); format: in vivo, Arabidopsis; settings: 20 μM anchorene
Experimental: For fluorescence intensity quantification of pDR5Rev::GFP and pPIN3::PIN3-GFP marker lines, ImageJ software (rsbweb.nih.gov/ij/) was used after taking confocal microscopy photos. All calculations are background subtracted.
To determine if the effect of anchorene on ANR development is caused by changes in auxin distribution, the activity of anchorene in the presence of NPA was evaluated. […] Vertical grown 5 DAG seedlings on half MSO with indicated treatments were analyzed. The orientation of root growth was measured and then was assigned to one of twelve 30° sectors. […] The auxin efflux carrier PIN3 plays an important role in LR initiation and emergence. Therefore, the effect of anchorene on PIN3 using the pPIN3::PIN3-GFP marker line was examined.

[3] = test system: pDR5::LUC seedlings; test: Luciferase assay in pDR5::LUC auxin marker line; format: in vivo, Arabidopsis; settings: 1 μM NF, 20 μM anchorene
Experimental: Luciferase activity was assayed as previously described. Briefly, 1 mL of 5 mM Potassium Luciferin (Gold Biotechnology®) dissolved in water was directly applied to pDR5:LUC seedlings grown vertically on treated half strength MS plates. The luciferin solution was allowed to dry for 5-10 minutes in the dark, at room temperature. Seedlings were then imaged using a Lumazone™ CA automated Chemiluminescence system. Seven minute exposure times were used.
A pDR5::LUC line, which marks LR prebranch sites, was used to track ANR development. […] ANR primordia initiation was observed as early as 3 dps, in anchorene treated pDR5::LUC and 158 pDR5rev::GFP seedling (FIGS. 5A-C).

C\C(C=O)=C/C=C/C=C(\C)C=O [anchorene, 12,12′-diapocarotene-12,12′-dial]
inhibition of primary root growth ([1]; 25 μM, 7 dps): weak inhibition | inhibition of primary root length ([1]; 8 DAG Col-0 seedlings, different concentrations of anchorene (FIG. 3F)): minor inhibition; also recorded: weak inhibitory effect | PIN3 levels (PIN3-GFP fluorescent intensity in ANR primordia) [2]: significantly increased | LUC signal in the collet [3]: intensified the LUC signal
